In ChEMBL document CHEMBL1137044, “Benzothiophene and naphthalene derived constrained SERMs” (Bioorg Med Chem Lett, 2004):

Legend:
Estrogen receptor [1] = biological target: T1, Estrogen receptor (Homo sapiens, UniProt Q92731+P03372); assay: Agonist activity as alkaline phosphatase induction in Ishikawa endometrial cells compared to E2; type: functional, cell-based
Estrogen receptor [2] = biological target: T1, Estrogen receptor; type: functional, cell-based; conditions: ishikawa
[3] = Inhibition of [3H]estradiol binding to Estrogen receptor alpha
Estrogen receptor [4] = biological target: T1, Estrogen receptor; assay: Antagonist effect against 10 pM 17-beta-estradiol induced MCF-7 cell proliferation; type: functional, cell-based
[5] = Inhibition of [3H]estradiol binding to Estrogen receptor beta

Row | EC50 (Estrogen receptor [1]) [nM] | IC50 (Estrogen receptor [2]) [nM] | Ki [3] [nM] | IC50 (Estrogen receptor [4]) [nM] | Ki [5] [nM] | SMILES
1 | 2.6 | 130 | 1 | 6.6 | 3.2 | Oc1ccc2c(c1)C(c1ccc(OCCN3CCCCC3)cc1)c1c(ccc3cc(O)ccc13)C2 (stereo not drawn)
2 | 0.7 | 50 | 1.1 | 2.9 | 5.4 | Oc1ccc2c3c(ccc2c1)Cc1c(O)cccc1C3c1ccc(OCCN2CCCCC2)cc1 (stereo not drawn)
3 | 3.5 | 710 | 2.4 | 17 | 5.3 | Oc1ccc2c3c(sc2c1)Cc1ccccc1C3c1ccc(C(O)CCN2CCCCC2)cc1 (stereo not drawn)
4 | 3.1 | 680 | 2.6 | 42 | 14 | Oc1ccc2c3c(sc2c1)Cc1cccc(O)c1C3c1ccc(C(O)CCN2CCCCC2)cc1 (stereo not drawn)
5 | 0.9 | 53 | 0.5 | 0.9 | 0.9 | Oc1ccc2c(c1)C(c1ccc(C(O)CCN3CCCCC3)cc1)c1c(sc3cc(O)ccc13)C2 (stereo not drawn)
6 | 28 | 580 | 7.7 | 68 | 40 | Oc1ccc2c3c(ccc2c1)Cc1cccc(O)c1C3c1ccc(OCCN2CCCCC2)cc1 (stereo not drawn)
7 |  |  | 0.7 |  | 4.4 | Oc1ccc2c(c1)Cc1ccc3cc(O)ccc3c1C2c1ccc(OCCN2CCCCC2)cc1 (single isomer, unassigned)
8 |  |  | 1.1 |  | 5.5 | Oc1ccc2c(c1)Cc1ccc3cc(O)ccc3c1C2c1ccc(OCCN2CCCCC2)cc1 (stereo in doubt; form 1)
9 |  |  | 0.8 |  | 4.2 | Oc1ccc2c(c1)Cc1ccc3cc(O)ccc3c1C2c1ccc(OCCN2CCCCC2)cc1 (stereo in doubt; form 2)

Row | SMILES | EC50 (Estrogen receptor [1]) [nM] | IC50 (Estrogen receptor [2]) [nM] | Ki [3] [nM] | IC50 (Estrogen receptor [4]) [nM] | Ki [5] [nM]
10 | Oc1ccc2c(c1)sc1cc3ccc(O)cc3c(-c3ccc(C(O)CCN4CCCCC4)cc3)c12 (stereo not drawn) | 1.6 | 690 | 0.4 | 1 | 0.3
11 | Oc1ccc2c(ccc3cc4ccc(O)cc4c(-c4ccc(OCCN5CCCCC5)cc4)c32)c1 | 10 | 820 | 0.8 | 57 | 0.5
12 | Oc1ccc2c(c1)Cc1sc3cc(O)ccc3c1C2c1ccc(C(O)CCN2CCCCC2)cc1 (stereo not drawn) | 0.4 | 45 | 0.7 | 0.7 | 1.3
13 | CCC(=C(c1ccc(O)cc1)c1ccc(OCCN(C)C)cc1)c1ccccc1 |  |  | 0.5 |  | 0.5
